Test results as given in ChEMBL document CHEMBL5543121, “Drug Repurposing of ACT001 to Discover Novel Promising Sulfide Prodrugs with Improved Safety and Potent Activity for Neutrophil-Mediated Antifungal Immunotherapy” (J Med Chem, 2024).
Calls of active or inactive are those of the source. The calls are words filed in the database; no cut-off is given here.

How the values were obtained:
Neutrophil [1] = assay: Induction of apoptosis in mouse neutrophils assessed as early apoptotic cells at 20 uM incubated for 16 hrs by Annexin V-FITC/PI staining based flow cytometry analysis (reference value: 26.9%); type: toxicity, cell-based
[2] = Tmax in male Sprague-Dawley rat at 10 mg/kg, po by LC-MS/MS analysis; type: ADME, organism-based; settings: in vivo
Candida albicans [3] = assay: Induction of neutrophil-mediated antifungal immunity against Candida albicans SC5314 infected in mouse assessed as inhibition of CXCL2 protein expression in bone marrow at 50 to 100 mg/kg, po administered once a day for 3 days by ELISA; type: functional, organism-based; settings: dose 50-100 mg/kg, time 3.0 day
[4] = Subacute toxicity in C57BL/6 mouse assessed as animal death at 100 mg/kg, po administered daily for 14 days and measured every day; type: organism-based; settings: in vivo, 336 h, time 14 day
[5] = Acute toxicity in C57BL/6 mouse assessed as effect on creatinine level in serum at 500 mg/kg, po administered as single dose and measured every day for 14 days; type: organism-based; settings: in vivo, 336 h, time 14 day
[6] = Subacute toxicity in C57BL/6 mouse assessed as body weight loss at 100 mg/kg, po administered daily for 14 days and measured every day; type: organism-based; settings: in vivo, 336 h, time 14 day
[7] = Subacute toxicity in C57BL/6 mouse assessed as effect on ALT level in serum at 100 mg/kg, po administered daily for 14 days and measured every day; type: organism-based; settings: in vivo, 336 h, time 14 day
[8] = biological target: Signal transducer and activator of transcription 3 (Homo sapiens, UniProt P40763); assay: Binding affinity to His-tagged human recombinant STAT3 assessed as dissociation constant by MST assay
[9] = Tmax in male Sprague-Dawley rat at 2 mg/kg, iv by LC-MS/MS analysis; type: ADME, organism-based; settings: in vivo
[10] = Volume of distribution at steady state in male Sprague-Dawley rat at 2 mg/kg, iv by LC-MS/MS analysis; type: ADME, organism-based; settings: in vivo, read-out: Vdss
[11] = Acute toxicity in C57BL/6 mouse assessed as change in liver weight at 500 mg/kg, po administered as single dose and measured after 14 days; type: organism-based; settings: in vivo, 336 h, time 14 day
[12] = MRT (0 to t) in male Sprague-Dawley rat at 10 mg/kg, po by LC-MS/MS analysis; type: ADME, organism-based; settings: in vivo
[13] = Subacute toxicity in C57BL/6 mouse assessed as histopathological changes in liver at 100 mg/kg, po administered daily for 14 days; type: organism-based; settings: in vivo, 336 h, time 14 day
[14] = Acute toxicity in C57BL/6 mouse assessed as histopathological changes in kidney at 500 mg/kg, po administered as single dose and measured after 14 days; type: organism-based; settings: in vivo, 336 h, time 14 day
[15] = test system: Polymorphonuclear neutrophil; assay: Inhibition of fungal curdlan induced CXCL1 protein expression in mouse polymorphonuclear neutrophils at 40 uM incubated for 4 hrs by ELISA; type: functional, cell-based
[16] = Initial plasma concentration in male Sprague-Dawley rat at 2 mg/kg, iv by LC-MS/MS analysis; type: ADME, organism-based
[17] = Acute toxicity in C57BL/6 mouse assessed as histopathological changes in lung at 500 mg/kg, po administered as single dose and measured after 14 days; type: organism-based; settings: in vivo, 336 h, time 14 day
[18] = Subacute toxicity in C57BL/6 mouse assessed as histopathological changes in heart at 100 mg/kg, po administered daily for 14 days; type: organism-based; settings: in vivo, 336 h, time 14 day
[19] = Subacute toxicity in C57BL/6 mouse assessed as effect on creatinine level in serum at 100 mg/kg, po administered daily for 14 days and measured every day; type: organism-based; settings: in vivo, 336 h, time 14 day
Neutrophil [20] = assay: Induction of neutrophil-mediated antifungal immunity against Candida albicans SC5314 infected in mouse assessed as increase in neutrophil infiltration in kidney at 50 to 100 mg/kg, po administered once a day for 3 days; type: functional, organism-based; settings: dose 50-100 mg/kg, time 3.0 day
[21] = Acute toxicity in C57BL/6 mouse assessed as change in heart weight at 500 mg/kg, po administered as single dose and measured after 14 days; type: organism-based; settings: in vivo, 336 h, time 14 day
Neutrophil [22] = assay: Induction of apoptosis in mouse neutrophils assessed as late apoptotic cells at 20 uM incubated for 16 hrs by Annexin V-FITC/PI staining based flow cytometry analysis (reference value: 24.4%); type: toxicity, cell-based
Neutrophil [23] = assay: Induction of apoptosis in mouse neutrophils assessed as dead cells at 40 uM incubated for 16 hrs by Annexin V-FITC/PI staining based flow cytometry analysis (reference value: 2.04%); type: toxicity, cell-based
[24] = Subacute toxicity in C57BL/6 mouse assessed as effect on urea level in serum at 100 mg/kg, po administered daily for 14 days and measured every day; type: organism-based; settings: in vivo, 336 h, time 14 day
[25] = Clearance in male Sprague-Dawley rat at 2 mg/kg, iv by LC-MS/MS analysis; type: ADME, organism-based; settings: in vivo
[26] = AUC (0 to infinity) in male Sprague-Dawley rat at 10 mg/kg, po by LC-MS/MS analysis; type: ADME, organism-based; settings: in vivo
[27] = Inhibition of fungal curdlan induced PD-L1 expression in mouse neutrophils assessed as reduction in PD-L1 positive Ly6G positive neutrophils incubated for 16 hrs by flow cytometry analysis; type: functional, cell-based; settings: Neutrophil
Candida albicans [28] = assay: Antifungal activity against Candida albicans SC5314 assessed as inhibition of fungal growth at 0.25 to 128 ug/ml measured every 3 hrs for 24 hrs by absorbance based analysis; type: functional, organism-based; settings: dose 0.25-128 µg/ml
Neutrophil [29] = assay: Effect on STAT3 protein level in curdlan induced mouse bone marrow neutrophils at 40 uM measured upto 60 mins by Western blot analysis; type: functional, cell-based
[30] = Subacute toxicity in C57BL/6 mouse assessed as histopathological changes in lung at 100 mg/kg, po administered daily for 14 days; type: organism-based; settings: in vivo, 336 h, time 14 day
Candida albicans [31] = assay: Antifungal activity against candida albicans SC5314 infected in mouse assessed as reduction in fungal burden in kidney at 200 mg/kg, po administered on day 1 and 3; type: functional, organism-based; settings: time 1-3 day
[32] = Cytotoxicity against mouse neutrophils assessed as reduction in cell viability incubated for 16 hrs by flow cytometry analysis; type: toxicity, cell-based, Neutrophil
Neutrophil [33] = assay: Induction of apoptosis in mouse neutrophils assessed as late apoptotic cells at 40 uM incubated for 16 hrs by Annexin V-FITC/PI staining based flow cytometry analysis (reference value: 24.4%); type: toxicity, cell-based
[34] = Subacute toxicity in C57BL/6 mouse assessed as effect on AST level in serum at 100 mg/kg, po administered daily for 14 days and measured every day; type: organism-based; settings: in vivo, 336 h, time 14 day
[35] = Acute toxicity in C57BL/6 mouse assessed as animal death at 500 mg/kg, po administered as single dose and measured every day for 14 days; type: organism-based; settings: in vivo, 336 h, time 14 day
[36] = Acute toxicity in C57BL/6 mouse assessed as histopathological changes in liver at 500 mg/kg, po administered as single dose and measured after 14 days; type: organism-based; settings: in vivo, 336 h, time 14 day
[37] = Subacute toxicity in C57BL/6 mouse assessed as signs of morbidity at 100 mg/kg, po administered daily for 14 days and measured every day; type: organism-based; settings: in vivo, 336 h, time 14 day
Neutrophil [38] = assay: Potency index, ratio of ACT001 IC50 to test compound IC50 for inhibition of fungal curdlan induced PD-L1 expression in mouse neutrophils assessed as reduction in PD-L1 positive Ly6G positive neutrophils incubated for 16 hrs by flow cytometry analysis; type: functional
[39] = Acute toxicity in C57BL/6 mouse assessed as abnormal behavior at 500 mg/kg, po administered as single dose and measured every day for 14 days; type: organism-based; settings: in vivo, 336 h, time 14 day

Sequence of Signal transducer and activator of transcription 3 (P40763 whole entry): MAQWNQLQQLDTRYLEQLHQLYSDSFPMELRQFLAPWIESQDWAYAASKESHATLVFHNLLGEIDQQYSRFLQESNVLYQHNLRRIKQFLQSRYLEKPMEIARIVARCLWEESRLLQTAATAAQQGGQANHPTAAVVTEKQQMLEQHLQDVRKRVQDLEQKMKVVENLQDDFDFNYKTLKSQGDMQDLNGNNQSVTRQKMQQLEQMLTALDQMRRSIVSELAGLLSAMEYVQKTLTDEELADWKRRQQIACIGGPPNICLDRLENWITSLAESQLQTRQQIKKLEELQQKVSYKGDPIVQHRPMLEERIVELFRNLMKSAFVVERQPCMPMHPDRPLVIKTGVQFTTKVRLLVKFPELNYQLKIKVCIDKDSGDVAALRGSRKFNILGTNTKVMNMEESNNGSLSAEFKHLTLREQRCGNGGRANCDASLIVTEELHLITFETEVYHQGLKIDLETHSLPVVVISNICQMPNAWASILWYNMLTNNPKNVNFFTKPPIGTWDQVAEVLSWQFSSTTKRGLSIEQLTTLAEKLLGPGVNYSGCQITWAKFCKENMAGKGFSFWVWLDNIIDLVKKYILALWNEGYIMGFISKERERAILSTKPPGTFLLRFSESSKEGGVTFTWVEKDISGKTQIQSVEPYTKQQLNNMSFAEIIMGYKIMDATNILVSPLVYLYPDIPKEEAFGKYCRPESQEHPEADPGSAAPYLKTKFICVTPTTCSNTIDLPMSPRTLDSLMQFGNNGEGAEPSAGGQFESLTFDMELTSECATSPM

**Q.** What does the source list for `C[C@@]1(O)CC[C@]23O[C@@]2(C)CC[C@@H]2[C@H](OC(=O)[C@H]2CS(=O)(=O)c2c(Cl)cccc2Cl)[C@@H]13`?
**A.** Activity (Neutrophil [1]): 29.3%; Tmax [2]: 19.8 min; Activity (Candida albicans [3]): Active; Activity [4]: Non-Toxic; Activity [5]: Non-Toxic; Activity [6]: Non-Toxic; Activity [7]: Non-Toxic; Kd [8]: 90.5 nM; Tmax [9]: 8.4 min; Vd [10]: 7.46 L/kg; Activity [11]: Non-Toxic; MRT last [12]: 1.74 h; Activity [13]: Non-Toxic; Activity [14]: Non-Toxic; inhibition [15]: Active; C0 [16]: 191 ng/mL; Activity [17]: Non-Toxic; Activity [18]: Non-Toxic; Activity [19]: Non-Toxic; Activity (Neutrophil [20]): Active; Activity [21]: Non-Toxic; Activity (Neutrophil [22]): 27%; Activity (Neutrophil [23]): 2.72%; Activity [24]: Non-Toxic; clearance [25]: 453 mL/min/kg; AUC(0-inf) [26]: 182 ng·h/mL; IC50 [27]: 3.76 µM; Activity (Candida albicans [28]): inactive; Activity (Neutrophil [29]): inactive; Activity [30]: Non-Toxic; Activity (Candida albicans [31]): Active; IC50 at 16 h [32]: > 320 µM; Activity (Neutrophil [33]): 30.8%; Activity [34]: Non-Toxic; Activity [35]: Non-Toxic; Activity [36]: Non-Toxic; Activity [37]: Non-Toxic; Ratio IC50 (Neutrophil [38]): 4.46; Activity [39]: Non-Toxic
